Test results: US8513297B2, “Biaromatic compounds that modulate PPARy type receptors and cosmetic/pharmaceutical compositions comprised thereof” (Galderma Research & Development, priority 2004, dated 2013)
Where a name gives a salt, the structure may show the parent alone.

Columns and labels:
Format in all cases: cell-based
PPARγ = molecular target: T1, PPARγ (Homo sapiens, UniProt P37231); experiment: Crossover-curve PPAR transactivation test, PPARγ; settings: HeLN cells stably transfected with Gal-hPPARγ and luciferase reporter; Schild regression against reference agonist; n.a. means not active; read-out: PPARγ Kd app
T1 construct: Either way it is a handle and not a second protein
T1 sequence (P37231 238-505 limits assumed): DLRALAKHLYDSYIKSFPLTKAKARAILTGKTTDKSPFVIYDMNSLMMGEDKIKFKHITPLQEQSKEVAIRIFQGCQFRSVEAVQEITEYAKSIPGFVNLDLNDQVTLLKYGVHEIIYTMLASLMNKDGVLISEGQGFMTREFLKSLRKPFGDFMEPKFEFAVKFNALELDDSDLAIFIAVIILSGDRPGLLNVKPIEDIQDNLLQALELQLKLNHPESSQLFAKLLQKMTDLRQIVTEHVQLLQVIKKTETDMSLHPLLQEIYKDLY
Experimental: (§1) The activation of PPAR receptors with an agonist (activator) in HeLN cells leads to the expression of a reporter gene, luciferase, which, in the presence of a substrate, generates light. The modulation of the PPAR receptors is measured by quantifying the luminescence produced after incubating the cells in the presence of a reference agonist. The ligands displace the agonist from its site. The measurement of the activity is performed by quantifying the light produced. This measurement makes it possible to determine the modulatory activity of the compounds according to the invention by determining the constant that is the affinity of the molecule for the PPAR receptor. Since this value can fluctuate depending on the basal activity and the expression of the receptor, it is referred to as Kd apparent (KdApp in nM).
(§2) To determine this constant, “crossover curves” of the test product against a reference agonist are performed in a 96-well plate: 10 concentrations of the test product plus a concentration 0 are arranged in a line, and 7 concentrations of the agonist plus a concentration 0 are arranged in a column. This is 88 measurement points for 1 product and 1 receptor. The remaining 8 wells are used for repeatability controls.
(§3) Measurements are also taken for total agonist controls with the same products.
(§4) The HeLN cell lines used are stable transfectants containing the plasmids ERE-βGlob-Luc-SV-Neo (reporter gene) and PPAR (α, δ, γ) Gal-hPPAR. These cells are inoculated into 96-well plates at a rate of 10 000 cells per well in 100 μl of DMEM medium without phenol red and supplemented with 10% of defatted calf serum. The plates are then incubated at 37° C. and 7% CO2 for 16 hours.
(§5) The various dilutions of the test products and of the reference ligand are added at a rate of 5 μl per well. The plates are then incubated for 18 hours at 37° C. and 7% CO2. The culture medium is removed by turning over and 100 μl of a 1:1 PBS/luciferine mixture are added to each well. After 5 minutes, the plates are read by the luminescence detector.

PPARδ = molecular target: T2, PPARδ (Homo sapiens, UniProt Q03181); experiment: Crossover-curve PPAR transactivation test, PPARδ; settings: HeLN cells stably transfected with Gal-hPPARδ and luciferase reporter; Schild regression against reference agonist; n.a. means not active; read-out: PPARδ Kd app
T2 construct: Either way it is a handle and not a second protein
T2 sequence (Q03181 211-441 limits assumed): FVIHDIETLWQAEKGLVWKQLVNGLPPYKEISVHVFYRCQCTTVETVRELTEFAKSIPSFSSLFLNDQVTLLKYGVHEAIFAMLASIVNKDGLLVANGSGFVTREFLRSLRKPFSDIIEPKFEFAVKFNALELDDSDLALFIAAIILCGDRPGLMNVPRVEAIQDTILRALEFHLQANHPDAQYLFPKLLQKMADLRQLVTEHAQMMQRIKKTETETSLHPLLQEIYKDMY
Experimental: as §1
To determine this constant, “crossover curves” of the test product against a reference agonist are performed in a 96-well plate: 10 concentrations of the test product plus a concentration 0 are arranged in a line, and 7 concentrations of the agonist plus a concentration 0 are arranged in a column. This is 88 measurement points for 1 product and 1 receptor. […]
The various dilutions of the test products and of the reference ligand are added at a rate of 5 μl per well. […] After 5 minutes, the plates are read by the luminescence detector.

PPARα = molecular target: T3, PPARα (Homo sapiens, UniProt Q07869); experiment: Crossover-curve PPAR transactivation test, PPARα; settings: HeLN cells stably transfected with Gal-hPPARα and luciferase reporter; Schild regression against reference agonist; n.a. means not active; read-out: PPARα Kd app
T3 construct: Either way it is a handle and not a second protein
T3 sequence (Q07869 200-468 limits assumed): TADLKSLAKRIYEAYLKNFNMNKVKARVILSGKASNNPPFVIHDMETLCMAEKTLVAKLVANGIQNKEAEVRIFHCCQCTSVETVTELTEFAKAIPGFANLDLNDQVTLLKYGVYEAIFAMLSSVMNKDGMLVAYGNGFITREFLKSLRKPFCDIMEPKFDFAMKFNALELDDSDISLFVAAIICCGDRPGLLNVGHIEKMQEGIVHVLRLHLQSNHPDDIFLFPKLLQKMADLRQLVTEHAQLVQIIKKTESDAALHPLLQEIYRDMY
Experimental: as §1, §2, §3, §4, §5

SMILES	Kd (PPARγ) [nM]	Kd (PPARδ) [nM]	Kd (PPARα) [nM]
CCCCCCCC(=O)N(C)Cc1cccc(-c2ccc(/C=C/C(=O)O)s2)c1 [Example 1, 3-(5-{3-[(methyloctanoylamino)methyl]phenyl}thiophen-2-yl)acrylic acid]	1000	–	–
CCCCCCCC(=O)N(C)Cc1cccc(-c2ccc(CCC(=O)O)s2)c1 [Example 2, 3-(5-{3-[(methyloctanoylamino)methyl]phenyl}thiophen-2-yl)propanoic acid]	500	–	–
CCCCCCCNC(=O)N(C)c1cccc(-c2ccc(CCC(=O)O)cc2)n1 [Example 6, 3-{4-[6-(3-heptyl-1-methylureido)pyrid-2-yl]phenyl}propanoic acid]	250	4000	–
CCCCCCCNC(=O)N(C)c1cccc(-c2ccc(CCC(=O)O)cn2)c1 [Example 7, 3-{6-[3-(3-heptyl-1-methylureido)phenyl]pyrid-3-yl}propanoic acid]	60	–	–
CCCCCCCNC(=O)N(C)c1ccnc(-c2ccc(CCC(=O)O)cc2)c1 [Example 8, 2-[4-(2-carboxyethyl)phenyl]-4-(3-heptyl-1-methylureido)pyridinium acetate]	1000	–	–
CCCCCNC(=O)N(C)c1cccc(-c2ccc(CCC(=O)O)cc2OCCCC)n1 [Example 11, 2-[2-butoxy-4-(2-carboxyethyl)phenyl]-6-(1-methyl-3-pentylureido)pyridinium hydrochloride]	120	–	2000
CCCCCCCNC(=O)N(C)c1cccc(-c2ccc(CCC(=O)O)cc2OCCCC)n1 [Example 12, 2-[2-butoxy-4-(2-carboxyethyl)phenyl]-6-(1-methyl-3-heptylureido)pyridinium hydrochloride]	15	–	4000
CCCCCCCNC(=O)N(C)c1cccc(-c2ccc(CCC(=O)O)cc2OCC)n1 [Example 13, 2-[4-(2-carboxyethyl)-2-ethoxyphenyl]-6-(3-heptyl-1-methylureido)pyridinium hydrochloride]	120	8000	4000
CCCCCCCC(=O)N(C)Cc1cc(-c2ccc(CCC(=O)O)cc2OCCCC)cs1 [Example 14, 3-(3-butoxy-4-{5-[(methyloctanoylamino)methyl]thiophen-3-yl}phenyl)propanoic acid]	2	–	–
CCCCOc1cc(CCC(=O)O)ccc1-c1csc(CN(C)C(=O)c2ccc(OC)cc2)c1 [Example 15, 3-[3-butoxy-4-(5-{[(4-methoxybenzoyl)methylamino]methyl}thiophen-3-yl)phenyl]propanoic acid]	30	–	–
CCCCOc1cc(CCC(=O)O)ccc1-c1csc(CN(C)C(=O)c2cccc(OC)c2)c1 [Example 16, 3-[3-butoxy-4-(5-{[(3-methoxybenzoyl)methylamino]methyl}thiophen-3-yl)phenyl]propanoic acid]	30	–	–
